Counter-ions that a name gives are not always drawn.

One assay deals with T1, NK3 receptor (Rattus norvegicus, UniProt P16177).
T1 construct: three smooth muscle preparations were used; from tissue; host or cells: rat portal vein (isolated smooth muscle)
T1 sequence (P16177 1-452): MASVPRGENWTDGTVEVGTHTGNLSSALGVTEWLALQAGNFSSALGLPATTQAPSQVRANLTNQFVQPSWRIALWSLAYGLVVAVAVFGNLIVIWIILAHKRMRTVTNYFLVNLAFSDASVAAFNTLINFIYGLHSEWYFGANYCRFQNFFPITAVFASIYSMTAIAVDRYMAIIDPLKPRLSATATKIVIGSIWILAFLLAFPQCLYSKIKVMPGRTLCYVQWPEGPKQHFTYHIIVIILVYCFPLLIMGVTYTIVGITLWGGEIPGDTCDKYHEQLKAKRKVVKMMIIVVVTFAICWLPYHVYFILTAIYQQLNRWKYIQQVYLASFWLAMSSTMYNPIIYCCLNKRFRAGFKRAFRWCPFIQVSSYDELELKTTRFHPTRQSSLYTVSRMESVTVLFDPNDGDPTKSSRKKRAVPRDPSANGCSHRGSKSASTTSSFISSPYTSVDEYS
The experiment in a line: Bio assay on isolated smooth muscle: rat portal vein. Format: cell-based. The following applies: antagonistic power, read-out: pA2 NK3 (converted). As for the experimental part:
(§1) In order to evaluate the neurokinin antagonistic potential of the compounds of the invention, three smooth muscle preparations were used. Each of these preparations, described as having a good specificity for one type of receptor for neurokinins, was carried out conforming to the following techniques described in the literature:
rat portal vein for the study of the NK3 receptor according to D. REGOLI et al. (European J. Pharmacol. 134, 321-326, 1986).
(§2) The antagonistic power of the compounds of the invention is expressed in the form of pA2 as defined by O. ARUNLAKSHANA and H. O. SCHILD (Brit. J. Pharmacol., 14, 48-58, 1959).

The target of another assay is T2, NK2 receptor (Oryctolagus cuniculus, UniProt P79218).
T2 construct: three smooth muscle preparations were used; from tissue; host or cells: rabbit pulmonary artery without endothelium (isolated smooth muscle)
T2 sequence (P79218 1-384): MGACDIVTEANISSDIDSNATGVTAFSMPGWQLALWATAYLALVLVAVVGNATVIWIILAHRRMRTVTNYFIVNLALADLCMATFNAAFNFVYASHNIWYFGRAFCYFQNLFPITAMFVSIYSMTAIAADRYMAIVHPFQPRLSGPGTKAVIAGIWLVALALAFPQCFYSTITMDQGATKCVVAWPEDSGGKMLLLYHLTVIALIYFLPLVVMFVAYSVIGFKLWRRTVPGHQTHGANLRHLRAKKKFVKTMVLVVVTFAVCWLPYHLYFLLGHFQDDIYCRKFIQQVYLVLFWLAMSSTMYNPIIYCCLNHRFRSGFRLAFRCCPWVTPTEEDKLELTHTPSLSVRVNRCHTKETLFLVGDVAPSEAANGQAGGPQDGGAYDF
The experiment in a line: Bio assay on isolated smooth muscle: rabbit pulmonary artery without endothelium. Format: cell-based. Conditions: antagonistic power, read-out: pA2 NK2 (converted). The protocol:
as §1
rabbit pulmonary artery without endothelium for the study of the NK2 receptor according to D. REGOLI et al. (European J. Pharmacol. 125, 37-44, 1985);
as §2

For the next assay, the system named is NK1 receptor. Format: cell-based, rabbit. The following applies: for pA2 NK1: antagonistic power, rabbit vena cava. The protocol: as §1
rabbit vena cava for the study of the NK1 receptor according to D. REGOLI et al. (J. Cardiovasc. Pharmacol., in press);
as §2

A further assay concerns mouse. The experiment in a line: Eddy test in the mouse (thermal hyperalgesia, hot plate 55° C.). The following applies: dose increasing the reaction time by 50%; i.v. 5 minutes before heating plate; CD1 male mice. Format: in vivo. The protocol:
This test consists in measuring the reaction time to heat determined by licking of the forepaws in a mouse (CD1 male, Ch. River, 25-30 g) placed on a metal plate heated to 55° C.
The animals were treated intravenously with the compounds of the invention 5 minutes before passing onto the heating plate.
The mean of the reaction times obtained for each batch treated (12 mice per batch) was compared with the mean of the corresponding control batch.

In the case of `CN(Cc1ccccc1)C(=O)[C@H](Cc1ccccc1)NC(=O)[C@@H](Cc1cn(C=O)c2ccccc12)NC(=O)C[C@@H]1NC(=O)[C@@H]2C3CCC(CC3)N2C1=O` [Example 1, Cyclo(Abo--Asp)--trp(CHO)--Phe--N(CH3)CH2 C6 H5], the Kb on NK3 receptor and on NK2 receptor was 13.8 µM each time.

Consider `CN(Cc1ccccc1)C(=O)[C@H](Cc1ccccc1)NC(=O)[C@@H](Cc1cn(C=O)c2ccccc12)NC(=O)C[C@H]1NC(=O)[C@H]2C3CCC(CC3)N2C1=O` [Example 5, Cyclo(abo--asp)--trp(CHO)--Phe--N(CH3)CH2 C6 H5], for which the Kb on NK3 receptor was 13.8 µM; at NK2 receptor, 2 µM.

Regarding `CN(Cc1ccccc1)C(=O)[C@H](Cc1ccccc1)NC(=O)[C@@H](Cc1cn(C=O)c2ccccc12)NC(=O)C[C@H]1NC(=O)[C@@H]2Cc3ccccc3CN2C1=O` [Example 6, Cyclo(Tic--asp)--trp(CHO)--Phe--N(CH3)CH2 C6 H5], the Kb was 13.5 µM on NK3 receptor and more than 6.76 µM at NK2 receptor. Further, the “pA2 NK1” value in the assay with NK1 receptor worked out at 6.87.

On to `CN(Cc1ccccc1)C(=O)[C@H](Cc1ccccc1)NC(=O)[C@@H](Cc1cn(C=O)c2ccccc12)NC(=O)C[C@@H]1NC(=O)[C@H](Cc2ccccc2)N(C)C1=O` [Example 7, Cyclo(MePhe--Asp)--trp(CHO)--Phe--N(CH3)CH2 C6 H5], for which the Kb at NK3 receptor and at NK2 receptor was 13.5 µM in each case. The “pA2 NK1” value in the assay with NK1 receptor was found to be 6.87.

In the case of `CN(Cc1ccccc1)C(=O)[C@H](Cc1ccccc1)NC(=O)[C@@H](Cc1c[nH]c2ccccc12)NC(=O)C[C@@H]1NC(=O)[C@@H]2C3CCC(CC3)N2C1=O` [Example 9, Cyclo(Abo--Asp)--trp--Phe--N(CH3)CH2 C6 H5], the Kb on NK2 receptor was 1 µM.

`CN(Cc1ccccc1)C(=O)[C@H](Cc1ccccc1)NC(=O)C[C@@H]1NC(=O)[C@@H]2Cc3ccccc3CN2C1=O` [Example 16, Cyclo(Tic--Asp)--Phe--N(CH3)CH2 C6 H5]: the Kb on NK3 receptor and at NK2 receptor was 19.1 µM throughout. For the same compound, in the assay on NK1 receptor, the “pA2 NK1” value is reported as 6.02.

Consider `CN(Cc1ccccc1)C(=O)[C@H](Cc1ccccc1)NC(=O)[C@@H]1C2CCC(CC2)N1C(=O)c1c[nH]c2ccccc12` [Example 31, (indol-3-yl) carbonyl--Abo--Phe--N(CH3)CH2 C6 H5], for which the results for the Kb at NK3 receptor and at NK2 receptor were 9.12 µM and 13.8 µM, respectively. The “pA2 NK1” value in the assay with NK1 receptor stood at 7.34.

In the case of `CN(Cc1ccccc1)C(=O)[C@H](Cc1ccccc1)NC(=O)[C@@H](Cc1cn(C(=O)CCCCCCN)c2ccccc12)NC(=O)C[C@@H]1NC(=O)[C@@H]2C3CCC(CC3)N2C1=O` [Example 38, Cyclo(Abo--Asp)--trp(CO(CH2)6 NH2, HCl)--Phe--N(CH3)CH2 C6 H5], in the assay with NK1 receptor, the “pA2 NK1” value was 6.70.

In the case of `CN1CC[C@]23c4c5ccc(O)c4O[C@H]2[C@@H](O)C=C[C@H]3[C@H]1C5` [morphine], the “Eddy test in the mouse ED50” value in the assay with mouse was 0.5 mg/kg i.v.

With “Cyclo(Tic--asp)--.PSI.(CH2 S)--Phe--N(CH3)CH2 C6 H5 [Example 24]”, the “antagonistic activity with respect to NK1 receptors, compared with NK2 and NK3 (in words)” value in the assay with NK1 receptor (isolated smooth muscle preparations) is “more particularly the case”.
